Calls of active or inactive are those of the source.
How the values were obtained:
HeLa = assay: ATP-based viability loss in HeLa cells – cell-based, CellTiter-Glo luminescence, cherry-pick samples, cytotoxicity control for MITF activator project, dose response (AID 540259); assay type: functional; conditions: Homo sapiens
HT-1080 = assay: HT1080 cell viability loss – fluorescence readout (AID 620); assay type: functional, cell-based; conditions: Homo sapiens
Beta-galactosidase = Beta-galactosidase (Escherichia coli, UniProt Q8VNN2); assay: detection-enzyme interference by beta-gal modulators – biochemical, E. coli enzyme, set 3, artefact control for CCR6 antagonist project, dose response (AID 504712); assay type: functional
[1] = target: Eukaryotic translation initiation factor 4E (Mus musculus, UniProt P63073); assay: blockers of eIF4G binding by eIF4E – biochemical, TR-FRET, dose response (AID 855); assay type: functional;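 further: potency for disrupting eIF4E binding to eIF4GI seen as loss of FRET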
[2] = target: C-C chemokine receptor type 6 (Homo sapiens, UniProt P51684); assay: antagonism of CCR6 beta-arrestin recruitment – cell-based, luminescent beta-arrestin readout, dose response (AID 504728); assay type: functional
Hexokinase HKDC1 = target: T1, Hexokinase HKDC1 (Homo sapiens, UniProt Q2TB90); assay: inhibition of HKDC1 glucose phosphorylation – biochemical, W721R variant, dose response (AID 504729); assay type: functional
T1 sequence (Q2TB90 whole entry): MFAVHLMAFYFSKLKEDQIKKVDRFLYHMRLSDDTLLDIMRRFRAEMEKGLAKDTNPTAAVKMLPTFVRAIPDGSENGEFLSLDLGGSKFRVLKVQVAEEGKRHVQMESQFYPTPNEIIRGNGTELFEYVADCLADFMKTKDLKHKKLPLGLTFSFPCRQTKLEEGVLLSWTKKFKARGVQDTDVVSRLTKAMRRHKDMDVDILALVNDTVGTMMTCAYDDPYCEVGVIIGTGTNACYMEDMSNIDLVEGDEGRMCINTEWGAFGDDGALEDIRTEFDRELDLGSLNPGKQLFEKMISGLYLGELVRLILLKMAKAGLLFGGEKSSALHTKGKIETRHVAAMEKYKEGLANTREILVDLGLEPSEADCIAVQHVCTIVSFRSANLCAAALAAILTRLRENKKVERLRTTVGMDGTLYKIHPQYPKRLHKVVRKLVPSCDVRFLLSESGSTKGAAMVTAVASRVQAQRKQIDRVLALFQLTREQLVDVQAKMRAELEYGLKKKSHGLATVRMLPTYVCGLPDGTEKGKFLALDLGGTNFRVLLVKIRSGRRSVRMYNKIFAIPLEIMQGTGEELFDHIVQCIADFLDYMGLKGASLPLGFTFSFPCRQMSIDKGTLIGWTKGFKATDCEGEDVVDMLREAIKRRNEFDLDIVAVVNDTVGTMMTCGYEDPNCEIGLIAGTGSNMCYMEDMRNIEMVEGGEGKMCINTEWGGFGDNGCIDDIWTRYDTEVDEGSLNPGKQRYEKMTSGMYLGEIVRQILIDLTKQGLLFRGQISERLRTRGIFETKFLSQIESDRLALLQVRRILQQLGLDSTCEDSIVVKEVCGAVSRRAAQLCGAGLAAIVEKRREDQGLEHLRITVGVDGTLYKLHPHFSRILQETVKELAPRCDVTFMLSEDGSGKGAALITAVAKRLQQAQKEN

[3] = target: Luciferin 4-monooxygenase (Photinus pyralis, UniProt P08659); assay: Counter Screen for Luciferase-based Assay Positives. [Related pubchem assays: 620, 618, 411 ]
Protein RecA = target: T2, Protein RecA (Mycobacterium tuberculosis, UniProt P9WHJ3); assay: Fluorescence Cell-Free Homogeneous Dose Retest to Identify Inhibitors of RecA-Intein Splicing Activity. [Related pubchem assays (depositor defined):AID2097, AID2223, AID489010, AID492950]; assay type: functional
T2 sequence (P9WHJ3 whole entry): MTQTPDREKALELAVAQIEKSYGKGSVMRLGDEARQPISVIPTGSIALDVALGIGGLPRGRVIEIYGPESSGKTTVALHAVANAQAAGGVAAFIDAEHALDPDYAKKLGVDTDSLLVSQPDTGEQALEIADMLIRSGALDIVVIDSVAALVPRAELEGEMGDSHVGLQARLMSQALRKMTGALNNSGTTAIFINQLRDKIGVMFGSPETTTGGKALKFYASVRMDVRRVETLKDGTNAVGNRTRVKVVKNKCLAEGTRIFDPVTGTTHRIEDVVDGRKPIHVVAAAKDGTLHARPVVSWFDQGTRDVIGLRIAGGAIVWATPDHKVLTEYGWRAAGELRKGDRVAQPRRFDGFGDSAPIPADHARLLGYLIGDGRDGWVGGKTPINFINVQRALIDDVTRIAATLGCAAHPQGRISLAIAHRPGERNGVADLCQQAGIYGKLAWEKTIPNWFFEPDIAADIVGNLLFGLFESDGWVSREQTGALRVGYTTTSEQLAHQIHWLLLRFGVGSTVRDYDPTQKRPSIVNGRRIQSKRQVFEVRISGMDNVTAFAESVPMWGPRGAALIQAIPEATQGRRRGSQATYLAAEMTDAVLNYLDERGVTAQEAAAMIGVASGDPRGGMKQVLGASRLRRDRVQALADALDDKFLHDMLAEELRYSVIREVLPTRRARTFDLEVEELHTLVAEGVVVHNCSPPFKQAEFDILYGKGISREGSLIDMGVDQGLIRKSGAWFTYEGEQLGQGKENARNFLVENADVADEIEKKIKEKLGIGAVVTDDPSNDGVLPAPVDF

[4] = target: T3, Replicative DNA helicase DnaB (Mycobacterium tuberculosis, UniProt P9WMR3); assay: DnaB intein splicing inhibitors, dose response, biochemical, cell-free fluorescence (AID 449749); assay type: functional
T3 sequence (P9WMR3 whole entry): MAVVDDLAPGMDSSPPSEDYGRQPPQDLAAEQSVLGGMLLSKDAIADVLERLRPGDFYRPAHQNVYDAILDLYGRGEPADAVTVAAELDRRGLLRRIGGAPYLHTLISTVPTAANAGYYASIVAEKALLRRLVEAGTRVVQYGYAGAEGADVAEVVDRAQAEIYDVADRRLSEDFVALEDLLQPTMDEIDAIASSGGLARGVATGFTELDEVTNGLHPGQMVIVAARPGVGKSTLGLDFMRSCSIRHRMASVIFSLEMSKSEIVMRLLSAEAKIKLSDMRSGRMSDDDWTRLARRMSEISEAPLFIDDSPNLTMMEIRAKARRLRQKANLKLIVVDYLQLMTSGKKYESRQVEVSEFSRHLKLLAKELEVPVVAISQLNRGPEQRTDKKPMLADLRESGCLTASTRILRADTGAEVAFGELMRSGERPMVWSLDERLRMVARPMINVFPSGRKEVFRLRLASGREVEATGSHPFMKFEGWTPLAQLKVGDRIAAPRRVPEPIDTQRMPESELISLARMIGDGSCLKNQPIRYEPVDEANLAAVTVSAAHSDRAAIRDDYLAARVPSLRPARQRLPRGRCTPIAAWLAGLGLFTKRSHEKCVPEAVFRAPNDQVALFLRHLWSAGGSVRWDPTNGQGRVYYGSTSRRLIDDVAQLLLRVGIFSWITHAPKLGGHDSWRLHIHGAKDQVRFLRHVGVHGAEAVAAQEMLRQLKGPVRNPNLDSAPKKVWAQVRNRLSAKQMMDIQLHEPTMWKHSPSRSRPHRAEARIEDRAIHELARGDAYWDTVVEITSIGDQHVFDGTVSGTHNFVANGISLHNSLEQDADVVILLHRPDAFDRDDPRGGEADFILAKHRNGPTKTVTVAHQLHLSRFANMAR

[5] = target: E3 ubiquitin-protein ligase Mdm2 (Homo sapiens, UniProt Q00987); assay: MDM2-luc reporter signal enhancers, multi-concentration potency testing, MDM2 ubiquitin-protein ligase inhibitor program, whole-cell format, luminescence detection, 384-well microplate (AID 1394); assay type: functional;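 further: MDM2 E3 inhibitors raise luminescence so EC50 is for signal enhancement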
Beta-arrestin-1 = Beta-arrestin-1 (Homo sapiens, UniProt P49407); assay: beta-arrestin/AP2 interaction blockers, potency – biochemical, cherry pick 1, beta2-adaptin appendage, flow cytometry, dose response (AID 588783); assay type: functional
Protein Tat = target: T4, Protein Tat (Human immunodeficiency virus type 1 group M subtype B (isolate HXB2)(HIV-1), UniProt P04608); assay type: functional;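 further: tat binding to TAR RNA read out by fluorescence polarization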
T4 sequence (P04608 whole entry): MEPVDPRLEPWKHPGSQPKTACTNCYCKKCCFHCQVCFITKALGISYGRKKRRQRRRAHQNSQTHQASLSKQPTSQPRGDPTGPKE

[6] = viability of HCT116 lacking mutant beta-catenin – cell-based, human colon tumor, dose response (AID 1045); assay type: functional;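 further: HCT116 colon tumor cells with beta catenin knocked out; cells exposed to compound for 60 hours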
[7] = viability of PTEN-deleted HCT116 cells – cell-based, HCT116 PTEN knockout, dose response (AID 1047); assay type: functional;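 further: HCT116 colon tumor cells with PTEN knocked out; cells exposed to compound for 60 hours before readout; potency for loss of cell viability measured by luminescence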
Nonstructural protein 1 = Nonstructural protein 1 (Influenza A virus, UniProt Q194T2); assay type: functional, Influenza A virus (A/California/07/2009(H1N1))
[8] = target: T5, Probable nicotinate-nucleotide adenylyltransferase (Staphylococcus aureus (strain N315), UniProt P65502); assay type: functional, Staphylococcus aureus subsp. aureus N315; conditions: read-out: IC50_Mean;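 on IC50 Mean: confirmatory dose-response retesting of NadD inhibitor hits first found in an ultra-high-throughput screen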
DNA topoisomerase = DNA topoisomerase (Yersinia pestis, UniProt A0A2S9PM60); assay: Yersinia topoisomerase I cleavage product accumulation – biochemical, cherry-pick, dose response (AID 588525)
[9] = target: T5, Probable nicotinate-nucleotide adenylyltransferase; assay type: functional, Staphylococcus aureus subsp. aureus N315

T5 sequence (P65502 whole entry): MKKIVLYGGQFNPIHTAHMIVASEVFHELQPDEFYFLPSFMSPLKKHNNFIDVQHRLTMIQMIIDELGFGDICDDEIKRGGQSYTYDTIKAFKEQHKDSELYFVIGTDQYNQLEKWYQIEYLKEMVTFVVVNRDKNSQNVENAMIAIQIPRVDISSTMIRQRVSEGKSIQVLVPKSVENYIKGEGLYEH
Sequence of Beta-galactosidase (Q8VNN2 whole entry): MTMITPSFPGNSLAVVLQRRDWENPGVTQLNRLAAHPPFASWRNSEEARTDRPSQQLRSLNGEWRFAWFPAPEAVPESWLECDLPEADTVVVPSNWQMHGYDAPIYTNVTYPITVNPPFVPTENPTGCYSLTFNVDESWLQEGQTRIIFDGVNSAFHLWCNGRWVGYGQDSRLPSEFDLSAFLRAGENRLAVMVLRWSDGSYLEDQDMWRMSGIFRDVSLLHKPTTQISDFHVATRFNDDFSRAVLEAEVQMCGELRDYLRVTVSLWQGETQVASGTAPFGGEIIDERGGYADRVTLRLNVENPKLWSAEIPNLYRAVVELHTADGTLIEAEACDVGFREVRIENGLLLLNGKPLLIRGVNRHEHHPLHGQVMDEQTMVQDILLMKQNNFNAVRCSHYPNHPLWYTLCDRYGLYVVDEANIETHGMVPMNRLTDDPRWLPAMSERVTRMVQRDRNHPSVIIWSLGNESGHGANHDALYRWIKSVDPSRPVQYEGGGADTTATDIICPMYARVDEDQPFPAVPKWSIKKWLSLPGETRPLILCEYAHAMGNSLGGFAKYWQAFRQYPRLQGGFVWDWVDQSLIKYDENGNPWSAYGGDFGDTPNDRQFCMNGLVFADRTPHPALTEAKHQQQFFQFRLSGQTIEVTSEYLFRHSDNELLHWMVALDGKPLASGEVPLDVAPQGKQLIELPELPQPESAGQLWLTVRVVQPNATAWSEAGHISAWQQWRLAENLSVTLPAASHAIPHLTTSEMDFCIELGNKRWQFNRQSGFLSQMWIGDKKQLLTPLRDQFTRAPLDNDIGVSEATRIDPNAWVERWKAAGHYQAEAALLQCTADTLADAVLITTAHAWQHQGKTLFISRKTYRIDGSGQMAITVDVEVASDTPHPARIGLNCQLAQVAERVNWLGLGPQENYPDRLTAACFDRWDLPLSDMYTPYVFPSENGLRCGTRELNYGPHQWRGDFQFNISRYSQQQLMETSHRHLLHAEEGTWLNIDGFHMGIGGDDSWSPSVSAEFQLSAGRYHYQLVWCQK
Sequence of Nonstructural protein 1 (Q194T2 whole entry): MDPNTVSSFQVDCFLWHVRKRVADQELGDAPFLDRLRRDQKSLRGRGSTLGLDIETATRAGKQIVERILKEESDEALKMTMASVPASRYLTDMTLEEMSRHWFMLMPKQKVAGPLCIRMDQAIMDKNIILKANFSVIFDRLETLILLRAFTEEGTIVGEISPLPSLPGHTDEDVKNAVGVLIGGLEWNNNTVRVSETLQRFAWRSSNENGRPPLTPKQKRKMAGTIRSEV
Sequence of Eukaryotic translation initiation factor 4E (P63073 whole entry): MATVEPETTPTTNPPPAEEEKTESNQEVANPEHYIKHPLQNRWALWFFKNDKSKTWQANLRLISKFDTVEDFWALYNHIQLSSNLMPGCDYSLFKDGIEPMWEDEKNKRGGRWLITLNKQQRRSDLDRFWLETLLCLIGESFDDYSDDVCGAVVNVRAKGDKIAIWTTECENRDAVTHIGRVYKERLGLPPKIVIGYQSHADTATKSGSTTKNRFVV
Sequence of DNA topoisomerase (A0A2S9PM60 whole entry): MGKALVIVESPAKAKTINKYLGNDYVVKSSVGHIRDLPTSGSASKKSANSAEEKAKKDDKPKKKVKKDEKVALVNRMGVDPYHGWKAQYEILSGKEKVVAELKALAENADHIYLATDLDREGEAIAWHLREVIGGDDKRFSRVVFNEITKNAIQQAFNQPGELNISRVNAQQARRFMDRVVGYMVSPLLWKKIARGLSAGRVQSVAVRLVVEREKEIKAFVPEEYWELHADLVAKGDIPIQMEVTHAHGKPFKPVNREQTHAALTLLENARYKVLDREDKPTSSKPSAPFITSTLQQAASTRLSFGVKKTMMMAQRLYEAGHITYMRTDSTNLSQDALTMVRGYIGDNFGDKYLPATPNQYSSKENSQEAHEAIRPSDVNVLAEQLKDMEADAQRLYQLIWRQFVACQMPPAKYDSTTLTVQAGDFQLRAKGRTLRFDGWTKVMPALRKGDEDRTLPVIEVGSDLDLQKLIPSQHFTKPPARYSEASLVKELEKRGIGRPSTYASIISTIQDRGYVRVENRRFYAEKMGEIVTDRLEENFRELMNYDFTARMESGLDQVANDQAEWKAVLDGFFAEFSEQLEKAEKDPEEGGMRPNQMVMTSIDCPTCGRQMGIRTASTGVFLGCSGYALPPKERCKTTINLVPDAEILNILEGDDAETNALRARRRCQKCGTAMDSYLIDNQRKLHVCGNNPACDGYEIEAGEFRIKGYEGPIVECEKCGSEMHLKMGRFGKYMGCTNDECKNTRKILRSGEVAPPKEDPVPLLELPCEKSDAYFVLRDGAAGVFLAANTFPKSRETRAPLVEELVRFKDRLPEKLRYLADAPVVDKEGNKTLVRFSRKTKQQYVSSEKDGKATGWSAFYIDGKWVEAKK
Sequence of C-C chemokine receptor type 6 (P51684 whole entry): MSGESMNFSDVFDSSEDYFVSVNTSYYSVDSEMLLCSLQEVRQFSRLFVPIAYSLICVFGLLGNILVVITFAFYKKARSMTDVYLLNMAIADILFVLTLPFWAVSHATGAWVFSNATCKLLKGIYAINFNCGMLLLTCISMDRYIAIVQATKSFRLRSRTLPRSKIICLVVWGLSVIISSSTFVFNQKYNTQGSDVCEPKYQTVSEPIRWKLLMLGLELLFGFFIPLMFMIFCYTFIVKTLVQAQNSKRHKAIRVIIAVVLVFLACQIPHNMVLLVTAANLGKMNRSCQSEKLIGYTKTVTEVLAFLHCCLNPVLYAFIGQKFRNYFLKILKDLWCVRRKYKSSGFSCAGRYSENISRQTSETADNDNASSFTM
Sequence of E3 ubiquitin-protein ligase Mdm2 (Q00987 whole entry): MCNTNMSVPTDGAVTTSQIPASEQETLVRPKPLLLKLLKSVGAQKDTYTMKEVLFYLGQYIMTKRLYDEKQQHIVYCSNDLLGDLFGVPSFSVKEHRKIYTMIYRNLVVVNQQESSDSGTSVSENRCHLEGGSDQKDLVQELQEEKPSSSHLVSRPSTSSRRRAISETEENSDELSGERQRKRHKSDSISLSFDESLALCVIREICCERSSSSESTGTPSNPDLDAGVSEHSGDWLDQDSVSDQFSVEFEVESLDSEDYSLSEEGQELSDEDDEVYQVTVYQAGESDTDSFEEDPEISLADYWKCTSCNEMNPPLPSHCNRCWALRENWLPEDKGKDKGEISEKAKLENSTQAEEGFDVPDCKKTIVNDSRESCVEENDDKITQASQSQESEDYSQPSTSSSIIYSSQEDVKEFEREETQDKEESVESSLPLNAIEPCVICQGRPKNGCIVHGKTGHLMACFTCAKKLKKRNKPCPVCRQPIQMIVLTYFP
Sequence of Luciferin 4-monooxygenase (P08659 whole entry): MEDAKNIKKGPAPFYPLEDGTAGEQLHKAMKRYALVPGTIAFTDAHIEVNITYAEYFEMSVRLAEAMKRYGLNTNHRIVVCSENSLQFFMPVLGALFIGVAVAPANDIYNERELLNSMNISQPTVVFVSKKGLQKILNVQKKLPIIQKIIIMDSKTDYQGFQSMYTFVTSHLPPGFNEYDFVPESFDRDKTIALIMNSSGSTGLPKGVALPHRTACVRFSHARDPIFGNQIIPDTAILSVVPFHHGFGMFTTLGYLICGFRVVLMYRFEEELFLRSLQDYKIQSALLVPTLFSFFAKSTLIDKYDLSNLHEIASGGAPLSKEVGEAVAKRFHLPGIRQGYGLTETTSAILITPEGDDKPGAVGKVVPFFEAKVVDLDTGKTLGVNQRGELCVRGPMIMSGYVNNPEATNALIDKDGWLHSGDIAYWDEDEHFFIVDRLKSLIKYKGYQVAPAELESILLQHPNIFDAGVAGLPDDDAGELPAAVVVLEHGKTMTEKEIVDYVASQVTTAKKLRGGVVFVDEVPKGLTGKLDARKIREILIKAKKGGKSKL
Sequence of Beta-arrestin-1 (P49407 whole entry): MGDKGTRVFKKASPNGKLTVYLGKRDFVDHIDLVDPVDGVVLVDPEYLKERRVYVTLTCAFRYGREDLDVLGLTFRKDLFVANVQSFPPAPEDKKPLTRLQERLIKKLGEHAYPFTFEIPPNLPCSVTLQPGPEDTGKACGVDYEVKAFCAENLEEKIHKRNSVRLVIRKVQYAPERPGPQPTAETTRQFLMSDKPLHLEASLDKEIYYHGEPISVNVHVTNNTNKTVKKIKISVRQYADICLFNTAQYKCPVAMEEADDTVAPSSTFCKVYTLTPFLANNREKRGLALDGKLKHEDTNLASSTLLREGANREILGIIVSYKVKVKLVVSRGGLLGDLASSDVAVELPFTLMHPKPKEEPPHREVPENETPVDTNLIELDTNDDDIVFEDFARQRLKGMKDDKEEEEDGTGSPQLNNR

In the case of `Cc1ccn2c(C(=O)c3ccc(Cl)cc3)cnc2c1`, the AC50 (HeLa) is reported as 37 µM (active).

With `O=C1C(Cl)=C(N2CCCCC2)C(=O)C(Cl)=C1c1cnc(N2CCCCC2)s1` the EC50 (HT-1080) was 45.9 µM (active), the IC50 (Beta-galactosidase) was > 66.6 µM (inactive) and the IC50 [1] was > 64 µM (inactive). For the same compound, the IC50 [2] was > 66.6 µM (inactive), the IC50 (Hexokinase HKDC1) was 11.4 µM (active) and the EC50 [3] was 4.4 µM (active). The EC50 (Protein RecA) was 766 nM (active), the AC50 [4] was > 380 µM (inactive) and the EC50 [5] was 2.42 µM (active). The IC50 (Beta-arrestin-1) was 14.1 µM (active), the IC50 (Protein Tat) was 1.99 µM (inconclusive) and the EC50 [6] was 2.75 µM (active). For the same compound, the EC50 [7] was 3.45 µM (active) and the IC50 (Nonstructural protein 1) was 21.4 µM (active).

For `O=C(Nc1ccn(CCCN(CCCn2ccc(NC(=O)OCc3ccccc3)nc2=O)CCc2cc3ccccc3[nH]2)c(=O)n1)OCc1ccccc1`, the IC50 [8] was 40.7 µM (active), the AC50 (DNA topoisomerase) was 2.54 µM (active) and the IC50 [9] was 15.9 µM (active).
